The results in this text go back to patent US8629242B2, “Methods of inhibiting calcineurin with ApoE analogs” (Cognosci, Inc., priority 2007, dated 2014).

Read-outs that look alike come from different tables or passages of the source. Where a SMILES comes first, the peptide text is derived from it. [ ]: non-standard residue; d: D form. Aib = CC(C)(N)C(=O)O

In one data set the target is T1, Calcineurin (Homo sapiens, UniProt Q08209).
T1 construct: purchased BioMol AK-804
As to the kind of experiment: Cell-free calcineurin phosphatase activity assay (BioMol kit). The following applies: various concentrations. It is filed as biochemical. As for the experimental part:
FIG. 14. ApoE analogs bind directly to calcineurin and inhibit its activity. […] (B) Immunoprecipitation of human brain lysate with a biotin-COG 133 conjugate. Lane 1=markers; lane 2=clear bead; lane 3=biotin-COG 133 bead conjugate; and lane 4=10 μg lysate. (C) Immunoprecipitation of different glial cultures with a biotin-COG 133 conjugate. Lane 1=markers; lane 2=astrocyte; lane 3=microglia; and lane 4=oligodendrocyte precursor cells (OPC). Blots in B and C were probed for calcineurin (PP2B).
Calcineurin activity was measured in a cell-free in vitro assay in the presence of various concentrations of COG 133 (SEQ ID NO: 1), COG 112 (SEQ ID NO: 5), COG 68 (SEQ ID NO: 7), COG 125 (Ac-AS(Aib)LRKL(Aib)KR—COOH; SEQ ID NO: 8), or antennapedia (antp), the prefix peptide for COG 112. […] Using a BioMol Calcineurin Phosphatase Activity Kit (Cat. #AK-804), the assay was conducted according to manufacturer's instructions. […] This inhibition of calcineurin activity by ApoE analogs is mediated by a direct interaction of the ApoE analog with the phosphatase.

Data set [1] deals with PLP-induced relapsing-remitting experimental autoimmune encephalomyelitis (EAE) model. The data set can be described thus: PLP-induced relapsing-remitting EAE model. The arrangement: CSmax during relapse (mean ± SEM) / Area under curve (mean ± SEM): scale not given here. The following applies: 4 mg/kg s.c.; for Area under curve (mean ± SEM): clinical score vs days post-inoculation, out to 60 days; for CSmax during relapse (mean ± SEM): maximal clinical score during relapse; for Relapse Rate: number of animals experiencing a relapse. It is filed as in vivo. The protocol: To further compare the activity of the various ApoE analogs, the efficacy of the analogs was assessed in a PLP-induced relapsing-remitting experimental autoimmune encephalomyelitis (EAE) model. […] The second dose was administered the next day followed by three times a week (M, W, F). Relapse rate represents the number of animals experiencing a relapse, while the CSmax indicates the maximal clinical score during relapse. Area under curve represents the area under the curve in a plot of clinical score vs. days post-inoculation (out to 60 days). […] The improvement in relapse rate and clinical score in the EAE model by ApoE analog treatment may be due, in part, to the remyelination-promoting effect of the ApoE analogs.

Another data set can be described thus: Maximum tolerated dose. It is filed as in vivo. The following applies: for MTD: in vivo. The source says:
To fully evaluate the use of ApoE analogs as therapeutic compounds, the margin of safety should also be determined. Towards that end, we determined the maximum tolerated dose of COG 112, COG 248, and COG 345 when administered by intravenous and subcutaneous injection.

Data set [2] deals with animal model of human diseases. The data set can be described thus: Minimum effective dose in animal models. It is filed as in vivo.
In data set [3] the test system is oligodendrocyte precursor cells (OPC)/microglia mixed culture. The data set can be described thus: LPS-induced OPC cell death in OPC/microglia mixed culture. It is filed as cell-based, rat. The following applies: 1 μM, LPS 10 ng/ml; for OPC cell death by LDH and MTT assays: 24 hours. As for the experimental part:
FIG. 9. COG 112 protects OPCs from LPS-induced cell death in OPC/microglia mixed culture. LPS (final conc. 10 ng/ml) was added to an OPC/microglia mixed culture with or without 1 μM COG 112. The prefix peptide of COG 112, antennapedia, was used as a negative control. Cells were fixed with 4% formaldehyde and stained with the OPC marker, NG2, and counterstained with hoescht. (A) LPS-treated cultures; (B) LPS+antennapedia (Antp)-treated cultures; (C) LPS+COG 112-treated cultures; (D) Bar graph summarizing the number of NG2+ cells per field in each condition. ** p<0.01.
FIG. 19. COG 345 promotes remyelination in lysolecithin-induced demyelination model of cerebellum slices. Significant demyelination was induced by lysolecithin (0.5 mg/ml) in cerebellar slices. COG 112 or COG 345 (1 μM) was added on day 3 when full demyelination was achieved. 4 days later, the slices were fixed and double stained with myelin marker MBP (green) and Purkinje cell marker calbindin (red). (A) Untreated-slices; (B) lysolecithin-treated slices; (C) COG 112-treated slices after lysolecithin exposure; (D) COG 345-treated slices after lysolecithin exposure. E-F. ApoE analogs protect OPCs from LPS-induced cell death in OPC/microglia mixed culture. OPCs and microglia derived from brain culture of P2 rat pups were plated in 96-well plates in 1:1 ratio. LPS (10 ng/ml) together with 1 μM of the indicated ApoE analogs was added to the cultures. After 24 hours, OPC cell death was quantified by LDH assay (E) and MTT assay (F). Statistical analysis was conducted by one-way ANOVA followed by Dunnett comparison vs. LPS group. * P<0.01, ** P<0.001, n=3.
A primary culture prepared from the brains of P2 Sprague-Dawley rat pups was grown for seven days. Microglia and OPCs were shaken off from the primary culture with an orbital shaker at 150˜200 rpm. The OPCs and microglia were plated in 24-well plates at a 1:1 ratio with 5×10^4 cells per well of each cell type. After 24 hours, LPS (final conc. 10 ng/ml) was added with or without 1 μM COG 112. The prefix peptide of COG 112, antennapedia, was used as a negative control. After incubation for 72 hours, the medium was removed and cells were fixed with 4% formaldehyde and stained with the OPC marker, NG2, and counterstained with hoescht. Five fields from each of the wells were randomly chosen to count the number of NG2-positive cells.
To further assess the ability of the novel ApoE analogs to promote remyelination, the effect of the analogs on OPC survival was assessed in an OPC/microglia mixed culture. OPC and microglia derived from primary culture of P2 rat pup brain were plated on 96-well plates in 1:1 ratio. […] After 24 hours, cell death of OPC was quantified by both LDH and MTT assays.
(Tetrazolium dyes change colour on reduction, which living cells bring about.)

Setting [4] is: sc, subcutaneous injection, read-out: Maximum Tolerated Dose Subcutaneous.
Where [5] appears, read: intravenous injection, read-out: Maximum Tolerated Dose Intravenous.

Turning to `CC(=O)N[C@@H](CC(C)C)C(=O)N[C@@H](CCCNC(=N)N)C(=O)N[C@H](C(=O)N[C@@H](CCCNC(=N)N)C(=O)N[C@@H](CC(C)C)C(=O)N[C@@H](C)C(=O)N[C@@H](CO)C(=O)N[C@@H](Cc1c[nH]cn1)C(=O)N[C@@H](CC(C)C)C(=O)N[C@@H](CCCNC(=N)N)C(=O)N[C@@H](CCCCN)C(=O)N[C@@H](CC(C)C)C(=O)N[C@@H](CCCNC(=N)N)C(=O)N[C@@H](CCCCN)C(=O)N[C@@H](CCCNC(=N)N)C(=O)N[C@@H](CC(C)C)C(=O)N[C@@H](CC(C)C)C(N)=O)C(C)C` [COG 133], the “inhibition of calcineurin activity” value on Calcineurin is given as “dose-dependent inhibition”. Also, in data set [1], the “Area under curve (mean ± SEM)” value came out at 25.3 ± 8.3, the “CSmax during relapse (mean ± SEM)” value worked out at 3.2 ± 0.7 and the “Relapse Rate” value was 7/14. In “Maximum tolerated dose” (setting [4]), the MTD is more than 100 mg/kg. Moreover, the MTD in the data set “Maximum tolerated dose” (setting [5]) is 16 mg/kg. Moreover, the “Minimum Effective Dose (model)” value in data set [2] (models: CIA, EAE) is reported as 1 mg/kg (CIA, EAE).

As to `CC(=O)NC(=N)NCCC[C@H](NC(=O)[C@H](CCCCN)NC(=O)[C@H](CCCNC(=N)N)NC(=O)[C@H](CC(C)C)NC(=O)[C@H](CCCCN)NC(=O)[C@H](CCCNC(=N)N)NC(=O)[C@H](CC(C)C)NC(=O)C(C)(C)NC(=O)[C@H](CO)NC(=O)[C@H](C)NC(=O)[C@H](CC(C)C)NC(=O)[C@H](CCCNC(=N)N)NC(=O)[C@@H](NC(=O)[C@H](CCCNC(=N)N)NC(=O)[C@H](CC(C)C)NC(C)=O)C(C)C)C(=O)N[C@@H](CC(C)C)C(=O)N[C@@H](CC(C)C)C(N)=O` [COG 345, acetyl-LRVRLAS-Aib-LRKLRK(acetyl-Arg)LL-amide] (Ac-LRVRLAS[Aib]LRKLRKR(Ac)LL-NH2), the “OPC cell death by LDH and MTT assays” value in data set [3] is given as “most potent”. Besides, in data set [1], the “improvement in relapse rate and maximum clinical score during relapse” value is listed as “significant improvement”; the “Area under curve (mean ± SEM)” value amounted to 15.5 ± 2.5; the “CSmax during relapse (mean ± SEM)” value amounted to 1.4 ± 0.2; the “Relapse Rate” value is 4/15. Moreover, the “safety profile by intravenous injection” value in the data set “Maximum tolerated dose” (compared to the other analogs on a molar basis) is “superior safety profile”. For the same molecule, the MTD in “Maximum tolerated dose” (setting [4]) was more than 150 mg/kg. Also, the MTD in “Maximum tolerated dose” (setting [5]) was 20 to 25 mg/kg. For the same molecule, the “Minimum Effective Dose (model)” value in data set [2] (model: EAE) is 1 mg/kg (EAE).

As for “Ac-RQIKIWFQNRRMKWKKCLRVRLASHLRKLRKRLL-NH2 [COG 112]”, in data set [3], the “OPC cell death by LDH and MTT assays” value is recorded as “most potent”. In addition, the “LPS-induced cell death of OPCs (number of NG2-positive cells)” value in data set [3] (72 hours) is on record as “significantly reduced LPS-induced cell death of OPCs”. The “inhibition of calcineurin activity” value at Calcineurin is given as “dose-dependent inhibition”. Further, in data set [1], the “Area under curve (mean ± SEM)” value was found to be 16.7 ± 3.6, the “CSmax during relapse (mean ± SEM)” value turned out to be 2.4 ± 0.8 and the “Relapse Rate” value is listed as 5/14. Besides, the MTD in “Maximum tolerated dose” (setting [4]) is more than 100 mg/kg. The MTD in “Maximum tolerated dose” (setting [5]) amounted to 28 mg/kg. In addition, the “Minimum Effective Dose (model)” value in data set [2] (models: EAE, TBI) is recorded as 1 mg/kg (EAE, TBI).
